Key:
Format in all cases: biochemical
[1] = system: Candida rugosa lipase 4 chimera Trx-LIP4/lid2 (lid region residues 63-94 of LIP4 exchanged with that of LIP2; thioredoxin fusion); experiment: Kinetic parameters of hydrolysis of cholesteryl linoleate by Trx-LIP4/lid2; settings: 37° C., pH 7.0; Trx-LIP4/lid2 86 nM; average of three independent experiments
Text: (§1) Construction of expression vectors The E. coli expression vectors pET23a-LIP4-S19 and pET23a-trx-LIP4-S19 were constructed as described in Tang et al. (2000) Protein Exp. Purif. 20: 308-313. Open-reading frames of LIP1, LIP2, LIP3, and LIP5 without the leader sequence were obtained by reverse transcription-polymerase chain reaction (RT-PCR). See Longhi et al. (1992) Biochim. Biophy. […] The chimeric DNA sequences were constructed by replacing the SphI(184)-BstXI(304) restriction DNA fragment of LIP4 with the corresponding fragments of LIP1, LIP2, LIP3, or LIP5, respectively. The resulting sequences encode mature chimeric C. rugosa lipases, denoted as TrX-LIP4/lid1, TrX-LIP4/lid2, TrX-LIP4/lid3, and TrX-LIP4/lid5, and were confirmed by DNA sequencing.
(§2) Preparation of recombinant LIP4 from E. coli. E. coli strain AD494(DE3) (Novagen, Milwaukee, Wis.) harboring recombinant plasmid was grown overnight at 37° C. in Luria-Bertani (LB) broth supplemented with 50 μg/mL ampicillin and 15 μg/mL kanamycin. The cells were then diluted 20-fold into fresh medium and incubated with shaking at 25° C. After adding IPTG to give a final concentration of 0.05 mM, the cells were incubated at 10° C. until OD600 reached 1.0.
(§3) Purification of recombinant LIP4. After induction, the AD494(DE3) transformants were harvested by centrifugation at 4000 g and 4° C. for 10 min. […]

[2] = system: Candida rugosa lipase 4 chimera Trx-LIP4/lid3 (lid region residues 63-94 of LIP4 exchanged with that of LIP3; thioredoxin fusion); experiment: Kinetic parameters of hydrolysis of cholesteryl linoleate by Trx-LIP4/lid3; settings: 37° C., pH 7.0; Trx-LIP4/lid3 58 nM; average of three independent experiments
Text: as §1, §2, §3

[3] = target: Candida rugosa lipase 4 (LIP4), native, recombinant (Diutina rugosa, UniProt P32948); experiment: Kinetic parameters of hydrolysis of cholesteryl linoleate by LIP4; settings: 37° C., pH 7.0; LIP4 39 nM; average of three independent experiments
Sequence of Candida rugosa lipase 4 (LIP4), native, recombinant (P32948 3-549, looked up, natural form): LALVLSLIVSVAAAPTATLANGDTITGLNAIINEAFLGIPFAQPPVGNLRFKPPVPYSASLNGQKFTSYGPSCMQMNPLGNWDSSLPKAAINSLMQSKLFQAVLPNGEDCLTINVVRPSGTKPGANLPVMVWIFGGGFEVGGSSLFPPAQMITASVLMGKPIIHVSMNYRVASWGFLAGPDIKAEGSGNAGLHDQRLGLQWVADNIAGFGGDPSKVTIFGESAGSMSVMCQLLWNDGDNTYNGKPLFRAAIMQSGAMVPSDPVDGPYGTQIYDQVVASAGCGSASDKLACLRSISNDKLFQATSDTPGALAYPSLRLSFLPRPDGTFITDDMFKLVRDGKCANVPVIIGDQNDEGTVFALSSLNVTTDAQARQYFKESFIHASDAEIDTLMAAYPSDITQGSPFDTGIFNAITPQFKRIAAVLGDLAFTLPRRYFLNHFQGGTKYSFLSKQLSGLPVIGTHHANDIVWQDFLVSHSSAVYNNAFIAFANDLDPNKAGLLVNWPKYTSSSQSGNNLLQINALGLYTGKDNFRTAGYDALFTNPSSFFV
Text: as §1, §2, §3

[4] = system: Candida rugosa lipase 4 chimera Trx-LIP4/lid5 (lid region residues 63-94 of LIP4 exchanged with that of LIP5; thioredoxin fusion); experiment: Kinetic parameters of hydrolysis of cholesteryl linoleate by Trx-LIP4/lid5; settings: 37° C., pH 7.0; Trx-LIP4/lid5 66 nM; average of three independent experiments
Text: as §1, §2, §3

[5] = system: Candida rugosa lipase 4 chimera Trx-LIP4/lid1 (lid region residues 63-94 of LIP4 exchanged with that of LIP1; thioredoxin fusion); experiment: Kinetic parameters of hydrolysis of cholesteryl linoleate by Trx-LIP4/lid1; settings: 37° C., pH 7.0; Trx-LIP4/lid1 11 nM; average of three independent experiments
Text: as §1, §2, §3

Structure (SMILES): CCCCC/C=C\C/C=C\CCCCCCCC(=O)O[C@H]1CC[C@@]2(C)C(=CC[C@H]3[C@@H]4CC[C@H]([C@H](C)CCCC(C)C)[C@@]4(C)CC[C@@H]32)C1 [cholesteryl linoleate]
- Km [1]: 74 ± 3 µM
- Vmax [1]: 1851 ± 24 10^−3 μmol/min/mg
- Km [2]: 46 ± 1 µM
- Vmax [2]: 231 ± 14 10^−3 μmol/min/mg
- Km [3]: 41 ± 5 µM
- Km [4]: 34 ± 1 µM
- Vmax [4]: 70 ± 4.8 10^−3 μmol/min/mg
- Km [5]: 103 ± 5 µM
- Vmax [5]: 28 ± 1 10^−3 μmol/min/mg
